Data on 1 compound can be found in article PMC12735969, “Regulation of NAD^+ Homeostasis by SsNrtR in Streptococcus Sobrinus: A Critical Determinant of Its Cariogenic Potential” (Pathogens, 2025).

The target of this assay is T1, SsNrtR (Streptococcus sobrinus, UniProt A0ABM6W328).
T1 construct: gene DK182_01300; full-length, hexahistidine tag, pET28b-nrtR, E. coli BL21(DE3), Ni-NTA and Superdex 200; about 28 kDa; dimer and oligomers
The assay can be described thus: EMSA, release from pnuC/pncB promoter DNA. Format: binding. The note with it: ADPR 0-1.0 mM; 200 bp pnuC/pncB promoter probe; allosteric anti-repressor.

SMILES strings stand for the structures.

`Nc1ncnc2c1ncn2[C@@H]1O[C@H](COP(=O)(O)OP(=O)(O)OC[C@H]2OC(O)[C@H](O)[C@@H]2O)[C@@H](O)[C@H]1O` (stereo partly shown) [ADP-ribose]: the “EMSA, release from pnuC/pncB promoter DNA” value is “the interaction between SsNrtR and the pnuC/pncB DNA probe was disrupted by ADPR”.
